Experimental data from PMC4994268, “4-aroylpiperidines and 4-(α-hydroxyphenyl)piperidines as selective sigma-1 receptor ligands: synthesis, preliminary pharmacological evaluation and computational studies” (Chemistry Central Journal, 2016).
Where a name gives a salt, the structure may show the parent alone.

What was measured:
σ1 receptor [1] = experiment: Sigma receptor binding, σ1 sites, [3H](+)-pentazocine competition in rat liver membrane homogenates; conditions: ratio of Ki σ2 to Ki σ1
Description: (§1) These experiments were performed as described by Jinbin et al. with some modification. Different concentrations of test samples were achieved by diluting stock solutions with a solution containing 50 mM Tris–HCl, 150 mM NaCl and 100 mM EDTA at pH 7.4. Rat liver membrane homogenates (~300 μg protein) were diluted with 50 mM Tris–HCl buffer, pH 8.0 and incubated in a total volume of 150 μL with the radioligand at 25 °C in 96 well plates. The incubation time was 60 min for test compounds and 120 min for [^3H] DTG and [^3H] (+)-pentazocine.
(§2) It is worth mentioning that, this was done one at a time. The final concentration of the radioligand in each assay was ~1 nM for [^3H] test compounds and ~5 nM for [^3H]
(§3) The reaction was started by adding 0.2 mL of the membrane preparation to the 50 mM Tris–HCl (pH 8.0) buffer containing ^3H-labeled ligand with a final concentration of 5 nM and cold ligand ranging from 0.01 to 0.1 mM in a final volume of 1.0 mL. Incubations were carried out at […] in the binding study with [^3H] […] DTG. Inhibitor concentrations ranging from 0.1 nM to 10 μM were added to acquire the inhibition curves. After the reaction was completed, the samples were harvested, washed three times, and the bound radioactivity counted and analyzed.

σ1 receptor [2] = target: T1, σ1 receptor (Rattus norvegicus, UniProt Q9R0C9); experiment: as above; conditions: for Ki: HCl salts tested, rat liver membrane homogenates
T1 construct: Rat liver membrane homogenates (~300 μg protein) were diluted with 50 mM Tris–HCl buffer; from tissue; host or cells: rat liver membrane homogenates
T1 sequence (Q9R0C9 whole entry): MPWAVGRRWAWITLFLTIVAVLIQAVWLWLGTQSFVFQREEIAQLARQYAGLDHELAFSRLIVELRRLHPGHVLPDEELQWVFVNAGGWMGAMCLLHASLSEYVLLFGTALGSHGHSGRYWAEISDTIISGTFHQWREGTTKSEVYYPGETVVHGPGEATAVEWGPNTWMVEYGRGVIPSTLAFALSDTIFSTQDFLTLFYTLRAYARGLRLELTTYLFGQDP
Description: as §1, §2, §3

σ2 receptor = target: T2, σ2 receptor (Rattus norvegicus, UniProt Q5U3Y7); experiment: Sigma receptor binding, σ2 sites, [3H]DTG competition with σ1 sites masked by (+)-pentazocine, rat liver membrane homogenates; conditions: HCl salts tested
T2 construct: Rat liver membrane homogenates (~300 μg protein) were diluted with 50 mM Tris–HCl buffer; from tissue; host or cells: rat liver membrane homogenates
T2 sequence (Q5U3Y7 1-176): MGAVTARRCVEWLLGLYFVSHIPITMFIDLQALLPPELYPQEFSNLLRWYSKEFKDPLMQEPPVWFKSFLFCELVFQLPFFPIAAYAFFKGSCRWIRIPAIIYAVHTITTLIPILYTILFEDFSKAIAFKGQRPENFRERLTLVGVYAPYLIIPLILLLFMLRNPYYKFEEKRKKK
Description: as §1
It is worth mentioning that, this was done one at a time. The final concentration of the radioligand in each assay was ~1 nM for [^3H] test compounds and ~5 nM for [^3H] […]

σ1 receptor [3] = conditions: reference ligands in Table 1; cited from earlier work

O=C(c1ccc(F)cc1)C1CCN(Cc2ccccc2[N+](=O)[O-])CC1 (as salt: HCl) [Compound 7d, 4-(4-fluorobenzoyl)-1-[(2-nitrophenyl)methyl]piperidine]
melting point: 95 to 97 °C

Cc1ccc(CN2CCC(C(=O)c3ccc(F)cc3)CC2)cc1 (as salt: HCl) [Compound 7f, 4-(4-fluorobenzoyl)-1-[(4-methylphenyl)methyl]piperidine]
melting point: 108 to 110 °C

O=C(c1ccc(F)cc1)C1CCN(Cc2ccc(F)cc2)CC1 [Compound 7a, 4-(4-fluorobenzoyl)-1-[(4-fluorophenyl)methyl]piperidine]
Selectivity ratio (Ki σ2/σ1) (σ1 receptor [1]): 75 | Ki (σ1 receptor [2]): 2.96 ± 0.5 nM | Ki (σ2 receptor): 222 ± 8 nM

O=C(c1ccc(F)cc1)C1CCN(Cc2ccc(Cl)c(Cl)c2)CC1 [Compound 7b, 1-[(3,4-dichlorophenyl)methyl]-4-(4-fluorobenzoyl)piperidine]
Ki (σ1 receptor [2]): > 434 nM | Ki (σ2 receptor): > 854 nM

O=C(c1ccc(F)cc1)C1CCN(Cc2ccc(Cl)cc2)CC1 [Compound 7c, 1-[(4-chlorophenyl)methyl]-4-(4-fluorobenzoyl)piperidine]
Selectivity ratio (Ki σ2/σ1) (σ1 receptor [1]): 93 | Ki (σ1 receptor [2]): 5.98 ± 0.41 nM | Ki (σ2 receptor): 554 ± 34.2 nM

O=C(c1ccc(F)cc1)C1CCN(Cc2ccccc2[N+](=O)[O-])CC1 [Compound 7d, 4-(4-fluorobenzoyl)-1-[(2-nitrophenyl)methyl]piperidine]
Ki (σ1 receptor [2]): > 434 nM | Ki (σ2 receptor): > 854 nM

O=C(c1ccc(F)cc1)C1CCN(Cc2ccc(Br)cc2)CC1 [Compound 7e, 1-[(4-bromophenyl)methyl]-4-(4-fluorobenzoyl)piperidine]
Selectivity ratio (Ki σ2/σ1) (σ1 receptor [1]): > 610 | Ki (σ1 receptor [2]): 1.4 ± 0.5 nM | Ki (σ2 receptor): > 854 nM

Cc1ccc(CN2CCC(C(=O)c3ccc(F)cc3)CC2)cc1 [Compound 7f, 4-(4-fluorobenzoyl)-1-[(4-methylphenyl)methyl]piperidine]
Selectivity ratio (Ki σ2/σ1) (σ1 receptor [1]): 13 | Ki (σ1 receptor [2]): 11.6 ± 0.26 nM | Ki (σ2 receptor): 151 ± 7.79 nM

OC(c1ccc(F)cc1)C1CCN(Cc2ccc(F)cc2)CC1 (stereo not drawn) [Compound 8a, (4-fluorophenyl)({1-[(4-fluorophenyl)methyl]piperidin-4-yl})methanol]
Selectivity ratio (Ki σ2/σ1) (σ1 receptor [1]): > 606 | Ki (σ1 receptor [2]): 1.41 ± 0.22 nM | increase in σ1 receptor affinity on reduction of the carbonyl compound to the corresponding alcohol (σ1 receptor [2]; alcohol 8 versus ketone 7): twofold | Ki (σ2 receptor): > 854 nM

OC(c1ccc(F)cc1)C1CCN(Cc2ccc(Cl)c(Cl)c2)CC1 (stereo not drawn) [Compound 8b, {1-[(3,4-dichlorophenyl)methyl]piperidin-4-yl}(4-fluorophenyl)methanol]
Ki (σ1 receptor [2]): > 434 nM | Ki (σ2 receptor): > 854 nM

OC(c1ccc(F)cc1)C1CCN(Cc2ccc(Cl)cc2)CC1 (stereo not drawn) [Compound 8c, {1-[(4-chlorophenyl)methyl]piperidin-4-yl}(4-fluorophenyl)methanol]
Selectivity ratio (Ki σ2/σ1) (σ1 receptor [1]): > 343 | Ki (σ1 receptor [2]): 2.49 ± 0.24 nM | increase in σ1 receptor affinity on reduction of the carbonyl compound to the corresponding alcohol (σ1 receptor [2]; alcohol 8 versus ketone 7): twofold | Ki (σ2 receptor): > 854 nM

O=[N+]([O-])c1ccccc1CN1CCC(C(O)c2ccc(F)cc2)CC1 (stereo not drawn) [Compound 8d, (4-fluorophenyl)({1-[(2-nitrophenyl)methyl]piperidin-4-yl})methanol]
Selectivity ratio (Ki σ2/σ1) (σ1 receptor [1]): 2 | Ki (σ1 receptor [2]): 527 ± 69 nM | Ki (σ2 receptor): > 854 nM

OC(c1ccc(F)cc1)C1CCN(Cc2ccc(Br)cc2)CC1 (stereo not drawn) [Compound 8e, {1-[(4-bromophenyl)methyl]piperidin-4-yl}(4-fluorophenyl)methanol]
Selectivity ratio (Ki σ2/σ1) (σ1 receptor [1]): > 164 | Ki (σ1 receptor [2]): 5.22 ± 0.3 nM | decrease in σ1 binding affinity on reduction of the carbonyl to the corresponding alcohol (σ1 receptor [2]; alcohol 8 versus ketone 7): fivefold | Ki (σ2 receptor): > 854 nM

Cc1ccc(CN2CCC(C(O)c3ccc(F)cc3)CC2)cc1 (stereo not drawn) [Compound 8f, (4-fluorophenyl)({1-[(4-methylphenyl)methyl]piperidin-4-yl})methanol]
Selectivity ratio (Ki σ2/σ1) (σ1 receptor [1]): > 589 | Ki (σ1 receptor [2]): 1.45 ± 0.4 nM | increase in σ1 receptor affinity on reduction of the carbonyl compound to the corresponding alcohol (σ1 receptor [2]; alcohol 8 versus ketone 7): 11 fold | Ki (σ2 receptor): > 854 nM

O=[N+]([O-])c1ccccc1CN1CCC(C(NCc2cccc(Br)c2)c2ccc(F)cc2)CC1 (stereo not drawn) [Compound 9d, [(3-bromophenyl)methyl][(4-fluorophenyl)({1-[(2-nitrophenyl)methyl]piperidin-4-yl})methyl]amine]
Ki (σ1 receptor [2]): > 434 nM | Ki (σ2 receptor): > 854 nM

Fc1ccc(C(NCc2cccc(Br)c2)C2CCN(Cc3ccc(Br)cc3)CC2)cc1 (stereo not drawn) [Compound 9e, [(3-bromophenyl)methyl]({1-[(4-bromophenyl)methyl]piperidin-4-yl}(4-fluorophenyl)methyl)amine]
Selectivity ratio (Ki σ2/σ1) (σ1 receptor [1]): > 289 | Ki (σ1 receptor [2]): 2.95 ± 0.57 nM | Ki (σ2 receptor): > 854 nM

c1ccc(CN2CCC3(CCc4ccccc4S3)CC2)cc1 [Spipethiane, 1′-Benzyl-3,4-dihydrospiro[2H-1-benzothiopyran-2,4′-piperidine]]
Ki (σ1 receptor [3]): 0.5 nM
